Source: patent US11884675B2, “Heterocyclic compounds as triggering receptor expressed on myeloid cells 2 agonists and methods of use” (AMGEN INC., priority 2020, dated 2024)

Target: hTREM2 (Homo sapiens, UniProt Q9NZC2)
Assay: TREM2 agonist potency by Syk phosphorylation (AlphaLisa) in HEK293T-hTREM2 cells, used for Examples 306-429
Assay type: cell-based
Parameters: expressed in transfected cells; host or cells: HEK293T (HEK293T-hTREM2 cells)
Conditions: HEK293 Cells
Outline: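 HEK293T cells expressing human TREM2 and DAP12, plated 20-24 h before, were exposed to compounds for 45 min at room temperature, then lysed. Phospho-Syk read by AlphaLisa; % activation from a standard curve and EC50 from a four-parameter log(agonist) fit.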

hTREM2, sequence (Q9NZC2 19-230): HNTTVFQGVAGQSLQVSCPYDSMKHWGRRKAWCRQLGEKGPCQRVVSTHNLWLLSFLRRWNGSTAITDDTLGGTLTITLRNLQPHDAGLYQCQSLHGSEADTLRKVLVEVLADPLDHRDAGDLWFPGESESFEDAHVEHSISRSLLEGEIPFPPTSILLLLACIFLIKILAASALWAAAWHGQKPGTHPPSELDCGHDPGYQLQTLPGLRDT
hTREM2, sequence (O43914 22-113 partner): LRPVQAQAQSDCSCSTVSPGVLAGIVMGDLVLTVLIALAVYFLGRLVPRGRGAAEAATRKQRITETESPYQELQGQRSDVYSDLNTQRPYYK

EC50 | Compound
50 to 500 nM | Cc1nc2nc([C@@H]3CCO[C@@H](c4cnn(C5CC5)c4)C3)nc(-c3ccc(C(F)(F)F)cc3F)c2nc1C [Example 412, 2-((2R,4R)-2-(1-cyclopropyl-1H-pyrazol-4-yl)tetrahydro-2H-pyran-4-yl)-4-(2-fluoro-4-(trifluoromethyl)phenyl)-6,7-dimethylpteridine]
≤ 50 nM | Cc1nc2cc(N3CCO[C@@H](c4cnn(C5CC5)c4)C3)nc(-c3ccc(Cl)cc3F)c2nc1C [Example 382, (2S)-4-[5-(4-chloro-2-fluoro-phenyl)-2,3-dimethyl-pyrido[3,4-b]pyrazin-7-yl]-2-(1-cyclopropylpyrazol-4-yl)morpholine]
50 to 500 nM | Cc1cnc2c(-c3ccc(F)cc3F)nc([C@H]3CCO[C@H](c4cnn(C5CC5)c4)C3)nc2n1 [Example 339, 2-((2S,4S)-2-(1-cyclopropyl-1H-pyrazol-4-yl)tetrahydro-2H-pyran-4-yl)-4-(2,4-difluorophenyl)-7-methylpteridine]
50 to 500 nM | Cc1nc2nc([C@@H]3CCO[C@@H](c4cnn(C5CC5)c4)C3)nc(-c3ccc(F)cc3Cl)c2nc1C [Example 321, 4-(2-chloro-4-fluorophenyl)-2-((2R,4R)-2-(1-cyclopropyl-1H-pyrazol-4-yl)tetrahydro-2H-pyran-4-yl)-6,7-dimethylpteridine]
≤ 50 nM | Cc1cc(C2CN(c3nc(-c4ccc(Cl)c(F)c4F)c4nc(C)c(C)nc4n3)CCO2)ccn1 (stereo not drawn) [Example 337, 4-(4-(4-chloro-2,3-difluorophenyl)-6,7-dimethylpteridin-2-yl)-2-(2-methylpyridin-4-yl)morpholine]
≤ 50 nM | Cc1nc2nc(N3C[C@@H](C)O[C@@H](c4cnn(C5CC5)c4)C3)nc(-c3ccc(Cl)cc3F)c2nc1C (racemic) [Example 373, 4-(4-(4-chloro-2-fluorophenyl)-6,7-dimethylpteridin-2-yl)-2-(1-cyclopropyl-1H-pyrazol-4-yl)-6-methylmorpholine]
≤ 50 nM | Cc1cc(C2CC(c3cc4nc(C)c(C)cc4c(-c4ccc(F)cc4F)n3)CCO2)ccn1 (stereo not drawn) [Example 328, 5-(2,4-difluorophenyl)-2,3-dimethyl-7-(2-(2-methylpyridin-4-yl)tetrahydro-2H-pyran-4-yl)-1,6-naphthyridine]
500 to 3000 nM | Cc1ccc2c(C(C)C)nc([C@H]3C[C@@H](C)O[C@@H](c4cnn(C5CC5)c4)C3)nc2n1 [Example 429, 2-((2R,4S,6R)-2-(1-cyclopropyl-1H-pyrazol-4-yl)-6-methyltetrahydro-2H-pyran-4-yl)-4-isopropyl-7-methylpyrido[2,3-d]pyrimidine]
≤ 50 nM | Cc1cc([C@H]2C[C@@H](c3cc4nc(C)c(C)nc4c(-c4ccc(F)cc4F)n3)CCO2)ccn1 [Example 317, 5-(2,4-difluorophenyl)-2,3-dimethyl-7-[(2R,4S)-2-(2-methyl-4-pyridyl)tetrahydropyran-4-yl]pyrido[3,4-b]pyrazine]
≤ 50 nM | Cc1cnc2c(-c3ccc(F)cc3F)nc(N3C[C@@H](C)O[C@@H](c4cnn(C5CC5)c4)C3)cc2n1 (racemic) [Example 362, 2-(1-cyclopropyl-1H-pyrazol-4-yl)-4-(5-(2,4-difluorophenyl)-2-methylpyrido[3,4-b]pyrazin-7-yl)-6-methylmorpholine]
≤ 50 nM | Cc1cnc2c(C34CC(C(F)(F)F)(C3)C4)nc(C3CCOC(c4cnn(C5CC5)c4)C3)nc2n1 (stereo not drawn) [Example 360, 2-(2-(1-cyclopropyl-1H-pyrazol-4-yl)tetrahydro-2H-pyran-4-yl)-7-methyl-4-(3-(trifluoromethyl)bicyclo[1.1.1]pentan-1-yl)pteridine]
50 to 500 nM | Cc1cc([C@H]2C[C@@H](c3cc4nc(C)cnc4c(-c4ccc(C(F)(F)F)nc4)n3)CCO2)ccn1 (racemic) [Example 308, 2-methyl-7-(2-(2-methylpyridin-4-yl)tetrahydro-2H-pyran-4-yl)-5-(6-(trifluoromethyl)pyridin-3-yl)pyrido[3,4-b]pyrazine]
≤ 50 nM | Cc1nc2nc(N3C[C@H](C)O[C@@H](c4cnn(C5CC5)c4)C3)nc(C34CC(C(F)(F)F)(C3)C4)c2nc1C [Example 408, (2S,6S)-2-(1-cyclopropyl-1H-pyrazol-4-yl)-4-(6,7-dimethyl-4-(3-(trifluoromethyl)bicyclo[1.1.1]pentan-1-yl)pteridin-2-yl)-6-methylmorpholine]
≤ 50 nM | COc1cc(C2CN(c3nc(-c4ccc(C(F)(F)F)nc4)c4nc(C)c(C)nc4n3)CCO2)ccn1 (stereo not drawn) [Example 322, 4-(6,7-dimethyl-4-(6-(trifluoromethyl)pyridin-3-yl)pteridin-2-yl)-2-(2-methoxypyridin-4-yl)morpholine]
50 to 500 nM | Cc1cnc2c(C34CC(C(F)(F)F)(C3)C4)nc(N3C[C@@H](C)O[C@H](c4cnn(C5CC5)c4)C3)nc2n1 [Example 405, (2R,6R)-2-(1-cyclopropyl-1H-pyrazol-4-yl)-6-methyl-4-(7-methyl-4-(3-(trifluoromethyl)bicyclo[1.1.1]pentan-1-yl)pteridin-2-yl)morpholine]
≤ 50 nM | Cc1cc([C@H]2C[C@@H](c3nc(-c4ccc(Cl)cc4F)c4ccc(C)nc4n3)CCO2)ccn1 (racemic) [Example 325, 4-(4-chloro-2-fluorophenyl)-7-methyl-2-(2-(2-methylpyridin-4-yl)tetrahydro-2H-pyran-4-yl)pyrido[2,3-d]pyrimidine]
≤ 50 nM | COc1cc([C@H]2CN(c3nc(-c4ccc(Cl)cc4F)c4nc(C)c(C)nc4n3)CCO2)ccn1 [Example 335, (S)-4-(4-(4-chloro-2-fluorophenyl)-6,7-dimethylpteridin-2-yl)-2-(2-methoxypyridin-4-yl)morpholine]
≤ 50 nM | Cc1nc2nc(N3CC(C)OC(c4cnn(C5CC5)c4)C3)nc(-c3ccc(F)cc3F)c2nc1C (stereo not drawn) [Example 369, 2-(1-cyclopropyl-1H-pyrazol-4-yl)-4-(4-(2,4-difluorophenyl)-6,7-dimethylpteridin-2-yl)-6-methylmorpholine]
50 to 500 nM | Cc1nc2nc(N3C[C@@H](C)O[C@H](c4cnn(C5CC5)c4)C3)nc(C34CC(C(F)(F)F)(C3)C4)c2nc1C [Example 409, (2R,6R)-2-(1-cyclopropyl-1H-pyrazol-4-yl)-4-(6,7-dimethyl-4-(3-(trifluoromethyl)bicyclo[1.1.1]pentan-1-yl)pteridin-2-yl)-6-methylmorpholine]
≤ 50 nM | Cc1cc([C@H]2C[C@@H](c3nc(-c4ccc(F)cc4F)c4ccc(C)nc4n3)CCO2)ccn1 (racemic) [Example 323, 4-(2,4-difluorophenyl)-7-methyl-2-(2-(2-methylpyridin-4-yl)tetrahydro-2H-pyran-4-yl)pyrido[2,3-d]pyrimidine]
≤ 50 nM | Cc1nc2cc([C@H]3CCO[C@@H](c4cnn(C5CC5)c4)C3)nc(C34CC(C(F)(F)F)(C3)C4)c2nc1C (mixture of isomers) [Example 392, 2,3-dimethyl-7-[2-(1-cyclopropylpyrazol-4-yl)tetrahydropyran-4-yl]-5-[3-(trifluoromethyl)-1-bicyclo[1.1.1]pentanyl]pyrido[3,4-b]pyrazine]
≤ 50 nM | Cc1cc([C@@H]2CN(c3nc(-c4ccc(Cl)c(F)c4F)c4nc(C)c(C)nc4n3)CCO2)ccn1 [Example 364, (R)-4-(4-(4-chloro-2,3-difluorophenyl)-6,7-dimethylpteridin-2-yl)-2-(2-methylpyridin-4-yl)morpholine]
≤ 50 nM | Cc1nc2cc(N3C[C@H](C)O[C@@H](c4cnn(C5CC5)c4)C3)nc(-c3ccc(F)cc3F)c2nc1C (racemic) [Example 357, 2-(1-cyclopropyl-1H-pyrazol-4-yl)-4-(5-(2,4-difluorophenyl)-2,3-dimethylpyrido[3,4-b]pyrazin-7-yl)-6-methylmorpholine]
≤ 50 nM | Cc1cnc2c(C34CC(C(F)(F)F)(C3)C4)nc([C@H]3CCO[C@@H](c4cnn(C5CC5)c4)C3)nc2n1 [Example 407, 2-((2R,4S)-2-(1-cyclopropyl-1H-pyrazol-4-yl)tetrahydro-2H-pyran-4-yl)-7-methyl-4-(3-(trifluoromethyl)bicyclo[1.1.1]pentan-1-yl)pteridine]
≤ 50 nM | Cc1cc(C2CN(c3cc4nc(C)c(C)cc4c(-c4ccc(F)cc4F)n3)CCO2)ccn1 (stereo not drawn) [Example 346, 4-(5-(2,4-difluorophenyl)-2,3-dimethyl-1,6-naphthyridin-7-yl)-2-(2-methylpyridin-4-yl)morpholine]
≤ 50 nM | Cc1cc([C@@H]2CN(c3nc(-c4cc(F)c(Cl)cc4F)c4nc(C)c(C)nc4n3)CCO2)ccn1 [Example 391, (2R)-4-[4-(4-chloro-2,5-difluoro-phenyl)-6,7-dimethyl-pteridin-2-yl]-2-(2-methyl-4-pyridyl)morpholine]
50 to 500 nM | Cc1cnc2c(-c3ccc(F)cc3F)nc([C@H]3C[C@@H](C)O[C@@H](c4cnn(C5CC5)c4)C3)nc2n1 [Example 415, 2-((2R,4S,6R)-2-(1-cyclopropyl-1H-pyrazol-4-yl)-6-methyltetrahydro-2H-pyran-4-yl)-4-(2,4-difluorophenyl)-7-methylpteridine]
≤ 50 nM | Cc1nc2cc(N3CCO[C@@H](c4cnn(C5CC5)c4)C3)nc(-c3ccc(C(F)(F)F)nc3)c2nc1C [Example 384, (2S)-2-(1-cyclopropylpyrazol-4-yl)-4-[2,3-dimethyl-5-[6-(trifluoromethyl)-3-pyridyl]pyrido[3,4-b]pyrazin-7-yl]morpholine]
50 to 500 nM | Cc1cc([C@@H]2C[C@H](c3nc(-c4ccc(Cl)c(F)c4F)c4nc(C)c(C)nc4n3)CCO2)ccn1 [Example 396, 4-(4-chloro-2,3-difluorophenyl)-6,7-dimethyl-2-((2S,4R)-2-(2-methylpyridin-4-yl)tetrahydro-2H-pyran-4-yl)pteridine]
≤ 50 nM | Cc1nc2cc(N3CCOC(c4cnn(C5CC5)c4)C3)nc(-c3ccc(C(F)(F)F)nc3)c2nc1C (stereo not drawn) [Example 349, 2-(1-cyclopropyl-1H-pyrazol-4-yl)-4-(2,3-dimethyl-5-(6-(trifluoromethyl)pyridin-3-yl)pyrido[3,4-b]pyrazin-7-yl)morpholine]
